In ChEMBL document CHEMBL1153042, “Fatty acid amide hydrolase inhibitors. Surprising selectivity of chiral azetidine ureas” (Bioorg Med Chem Lett, 2009):

Assays:
[1] = target: T1, Fatty-acid amide hydrolase 1 (Homo sapiens, UniProt O00519); assay: Inhibition of human FAAH incubated 1 hr prior to addition of arachidonyl-amino-methyl-coumarin amide
T1 sequence (O00519 whole entry): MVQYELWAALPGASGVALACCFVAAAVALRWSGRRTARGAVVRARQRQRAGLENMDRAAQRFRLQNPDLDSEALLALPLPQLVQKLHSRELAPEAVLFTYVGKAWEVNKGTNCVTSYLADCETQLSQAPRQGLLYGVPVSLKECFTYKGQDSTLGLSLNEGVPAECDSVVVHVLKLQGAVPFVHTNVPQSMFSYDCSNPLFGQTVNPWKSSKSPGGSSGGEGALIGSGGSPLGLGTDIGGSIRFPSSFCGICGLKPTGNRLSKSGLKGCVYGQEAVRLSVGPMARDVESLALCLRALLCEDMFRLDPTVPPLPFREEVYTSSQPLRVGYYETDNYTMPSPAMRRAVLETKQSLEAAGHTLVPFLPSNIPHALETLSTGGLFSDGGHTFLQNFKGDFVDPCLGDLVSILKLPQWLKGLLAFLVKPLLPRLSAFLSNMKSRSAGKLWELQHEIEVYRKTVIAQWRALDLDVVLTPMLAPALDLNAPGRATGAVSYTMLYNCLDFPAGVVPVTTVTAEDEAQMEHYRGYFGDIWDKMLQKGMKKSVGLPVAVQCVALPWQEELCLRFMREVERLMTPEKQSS

[2] = target: T1, Fatty-acid amide hydrolase 1; assay: Inhibition of human FAAH incubated 3 hrs prior to addition of arachidonyl-amino-methyl-coumarin amide
[3] = target: T2, Fatty-acid amide hydrolase 1 (Rattus norvegicus, UniProt P97612); assay: Inhibition of rat FAAH incubated 1 hr prior to addition of arachidonyl-amino-methyl-coumarin amide
T2 sequence (P97612 whole entry): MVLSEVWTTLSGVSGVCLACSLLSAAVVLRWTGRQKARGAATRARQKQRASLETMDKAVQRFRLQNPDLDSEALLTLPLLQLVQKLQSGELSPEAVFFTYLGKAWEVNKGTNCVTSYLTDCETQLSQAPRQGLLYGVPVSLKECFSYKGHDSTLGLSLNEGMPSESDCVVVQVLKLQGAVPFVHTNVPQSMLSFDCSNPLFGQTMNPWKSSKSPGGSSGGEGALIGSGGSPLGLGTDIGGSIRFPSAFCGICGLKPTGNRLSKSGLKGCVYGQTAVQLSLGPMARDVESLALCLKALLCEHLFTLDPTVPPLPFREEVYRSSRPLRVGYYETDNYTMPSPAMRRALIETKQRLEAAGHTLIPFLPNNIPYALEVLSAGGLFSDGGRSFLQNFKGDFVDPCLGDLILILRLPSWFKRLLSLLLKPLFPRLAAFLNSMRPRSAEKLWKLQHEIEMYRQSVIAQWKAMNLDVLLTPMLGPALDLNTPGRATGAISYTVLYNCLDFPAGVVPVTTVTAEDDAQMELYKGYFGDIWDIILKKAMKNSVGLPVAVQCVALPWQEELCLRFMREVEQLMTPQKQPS

[4] = target: T2, Fatty-acid amide hydrolase 1; assay: Inhibition of rat FAAH incubated 3 hrs prior to addition of arachidonyl-amino-methyl-coumarin amide
Cannabinoid receptor 1 = Cannabinoid receptor 1 (Homo sapiens, UniProt P21554); assay: Displacement of [3H]SR141716A from human CB1 receptor
Cannabinoid receptor 1, sequence (P21554 whole entry): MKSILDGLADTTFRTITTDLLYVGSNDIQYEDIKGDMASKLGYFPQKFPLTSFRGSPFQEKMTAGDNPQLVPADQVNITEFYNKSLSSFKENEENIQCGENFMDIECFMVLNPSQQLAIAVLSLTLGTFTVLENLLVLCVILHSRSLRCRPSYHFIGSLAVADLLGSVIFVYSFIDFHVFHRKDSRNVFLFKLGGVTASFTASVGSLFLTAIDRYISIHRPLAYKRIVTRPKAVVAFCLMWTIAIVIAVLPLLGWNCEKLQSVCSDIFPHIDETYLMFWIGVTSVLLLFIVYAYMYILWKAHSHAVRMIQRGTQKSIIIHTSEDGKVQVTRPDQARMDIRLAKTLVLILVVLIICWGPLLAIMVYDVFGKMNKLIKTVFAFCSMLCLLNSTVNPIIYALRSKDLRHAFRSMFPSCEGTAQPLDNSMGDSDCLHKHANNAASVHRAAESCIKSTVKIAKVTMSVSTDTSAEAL

Cannabinoid receptor 2 = Cannabinoid receptor 2 (Homo sapiens, UniProt P34972); assay: Displacement of [3H]CP-55940 from human CB2 receptor
Cannabinoid receptor 2, sequence (P34972 whole entry): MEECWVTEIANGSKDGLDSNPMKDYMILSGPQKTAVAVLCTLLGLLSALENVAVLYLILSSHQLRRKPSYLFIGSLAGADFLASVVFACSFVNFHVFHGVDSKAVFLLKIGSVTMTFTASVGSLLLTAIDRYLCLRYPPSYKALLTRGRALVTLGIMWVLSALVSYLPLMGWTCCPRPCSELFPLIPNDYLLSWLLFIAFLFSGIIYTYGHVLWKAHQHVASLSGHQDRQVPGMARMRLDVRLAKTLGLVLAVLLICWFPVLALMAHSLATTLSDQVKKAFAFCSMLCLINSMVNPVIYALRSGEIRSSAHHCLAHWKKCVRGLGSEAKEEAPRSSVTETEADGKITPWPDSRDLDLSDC

Compound | IC50 [1] [nM] | IC50 [2] [nM] | IC50 [3] [nM] | IC50 [4] [nM] | Ki (Cannabinoid receptor 1) [nM] | Ki (Cannabinoid receptor 2) [nM]
O=C(N1CCCCC1)N1CC(O[C@@H](c2ccc(Cl)cc2)c2cccnc2Cl)C1 | 140 | 78 | 1030 | 531 | 560 | 7190
O=C(N1CCCCC1)N1CC(O[C@H](c2ccc(Cl)cc2)c2cccnc2Cl)C1 | > 10000 | > 10000 | > 10000 | > 10000 | < 10 | 10900
O=C(N1CCCCC1)N1CC(OC(c2ccc(Cl)cc2)c2cccnc2Cl)C1 (racemic) | 291 | 188 | – | – | < 10 | –
